Values after ≈ are worked out from the molar mass of the structure shown.

Common to all, as to format: functional
The species entered for assay [1] is Mus musculus. The assay can be described thus: Minimum inhibitory concentration was evaluated in mice against antimicrobial activity in methicillin-resistant Staphylococcus aureus(MRSA 27660); 0.25-1.
The species named for assay [2] is Mus musculus. The assay can be described thus: Minimum inhibitory concentration was evaluated in mice against antimicrobial activity in […] (PISP 49619); 1-2.
Assay [3] is filed under the species Mus musculus. The assay can be described thus: Minimum inhibitory concentration was evaluated in mice against antimicrobial activity in […] Enterococcus faecalis (VSEF 29212); 0.5-2.

With `Cn1cc(NC(=O)c2cc(NC(=O)c3cc(NC(=O)c4cc5ccccc5cn4)cn3C)c[nH]2)cc1C(=O)NCCN1CCOCC1`, the MIC in the assay listed under Mus musculus [1] amounted to 1 µg/mL (≈ 1.57 µM); in the assay listed under Mus musculus [2] it was 2 µg/mL (≈ 3.14 µM); in the assay filed under Mus musculus [3], 2 µg/mL (≈ 3.14 µM).

Values taken from ChEMBL document CHEMBL1137975, “DNA binding ligands with in vivo efficacy in murine models of bacterial infection: optimization of internal aromatic amino acids” (2004).
